We go through ten molecules from ChEMBL document CHEMBL1201862, “PubChem BioAssay data set” (2004).

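Step 1: Grow cells in 96-well plates. Step 2: Expose to compound for 48 hours at 5 concentrations. Step 3: Interpolate endpoints linearly; if unreached, use highest concentration. Abbreviation: GI50, concentration required for 50% inhibition of growth.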 Active and inactive are the calls of the source. Rule as the data show it: active = GI50 up to about 1.1 µM and inactive = higher.

Among the test systems are Malme-3M; MOLT-4; EKVX; MDA-MB-435; COLO 205; HOP-92; NCI-H23; KM12; LOX IMVI; ACHN; T47D; NCI-H460; NCI-H522; A498; SF-539; OVCAR-4; 786-0; OVCAR-8; HCC 2998; UO-31.
Common to all, as to experiment: growth of human tumour cells (NCI), 48 h

On to `C[C@H](CCC(=O)O)[C@H]1CC[C@H]2[C@@H]3[C@@H](O)C[C@@H]4C[C@H](O)CC[C@]4(C)[C@H]3C[C@H](O)[C@]12C`, for which the GI50 in the assay on Malme-3M, in the assay with MOLT-4, in the assay with EKVX, with MDA-MB-435, in the assay with COLO 205 and in the assay on HOP-92 was > 100 µM (inactive) throughout. In addition, the GI50 in the assay on NCI-H23, in the assay on KM12, in the assay with LOX IMVI, with ACHN, with T47D and with NCI-H460 was > 100 µM (inactive) in each case. The GI50 in the assay with NCI-H522, in the assay with A498, with SF-539, in the assay on OVCAR-4, with 786-0 and in the assay with OVCAR-8 was > 100 µM (inactive) in each case. In addition, the GI50 with HCC 2998 is > 100 µM (inactive).
As for `C[Si](C)(C)C1=C2C(=O)c3ccccc3C(=O)C2=C([Si](C)(C)C)[C@@H]2CCCC[C@H]12`, the GI50 in the assay on Malme-3M, in the assay with MOLT-4, with EKVX, in the assay with MDA-MB-435, with COLO 205 and with HOP-92 was > 100 µM (inactive) in each case. Further, the GI50 in the assay with NCI-H23, in the assay with LOX IMVI, in the assay on ACHN, with T47D, with NCI-H460 and in the assay on NCI-H522 was > 100 µM (inactive) each time. The GI50 is > 100 µM (inactive) with A498; > 100 µM (inactive) with UO-31; > 100 µM (inactive) in the assay with SF-539; 95.3 µM (inactive) with OVCAR-4; > 100 µM (inactive) in the assay with HCC 2998.
As to `O=C1CC(O)c2cscc21` (configuration not stated), the GI50 is > 100 µM (inactive) in the assay on Malme-3M; 35.2 µM (inactive) in the assay on MOLT-4; > 100 µM (inactive) in the assay on EKVX; > 100 µM (inactive) with MDA-MB-435; 34 µM (inactive) with COLO 205; > 100 µM (inactive) in the assay with HOP-92. Also, the GI50 in the assay on NCI-H23 is > 100 µM (inactive); in the assay with KM12, > 100 µM (inactive); in the assay with LOX IMVI, 36.5 µM (inactive); in the assay on ACHN it was > 100 µM (inactive); in the assay with T47D it was > 100 µM (inactive); in the assay on NCI-H460 it was > 100 µM (inactive). Besides, the GI50 in the assay with NCI-H522 was 41.3 µM (inactive); in the assay on A498, > 100 µM (inactive); with SF-539, > 100 µM (inactive); in the assay on OVCAR-4 it was > 100 µM (inactive); in the assay on 786-0 it was > 100 µM (inactive); in the assay with OVCAR-8 it was 65.9 µM (inactive). Besides, the GI50 with HCC 2998 is 32.2 µM (inactive).
As to `C/C(Cc1ccc2c(c1)OCO2)=N\N=c1\sc2ccccc2n1C`, the GI50 in the assay on Malme-3M was > 100 µM (inactive); in the assay on MOLT-4, 78.3 µM (inactive); in the assay on EKVX it was 24.8 µM (inactive); in the assay on MDA-MB-435 it was > 100 µM (inactive); in the assay on COLO 205, > 100 µM (inactive); with HOP-92 it was 84.9 µM (inactive). Further, the GI50 was 78 µM (inactive) in the assay on NCI-H23; > 100 µM (inactive) in the assay with KM12; > 100 µM (inactive) with LOX IMVI; > 100 µM (inactive) in the assay with ACHN; 58.7 µM (inactive) in the assay with T47D; > 100 µM (inactive) in the assay with NCI-H522. In addition, the GI50 in the assay with A498, in the assay with UO-31, with SF-539, in the assay with OVCAR-4, in the assay with 786-0 and in the assay with OVCAR-8 was > 100 µM (inactive) each time. Also, the GI50 in the assay on HCC 2998 was > 100 µM (inactive).
Take `Cc1cn(C2CC(O)C(Cn3nncc3Cn3cnc4c(N)ncnc43)O2)c(=O)[nH]c1=O` (configuration not stated): the GI50 in the assay with Malme-3M, with MOLT-4, in the assay with EKVX, in the assay with MDA-MB-435, in the assay on COLO 205 and with HOP-92 was > 100 µM (inactive) each time. The GI50 in the assay on NCI-H23, in the assay with KM12, with LOX IMVI, in the assay with ACHN, in the assay on T47D and with NCI-H522 was > 100 µM (inactive) throughout. Also, the GI50 with A498 is > 100 µM (inactive); in the assay on UO-31, > 100 µM (inactive); in the assay with SF-539, > 100 µM (inactive); in the assay with OVCAR-4, > 100 µM (inactive); with 786-0, > 100 µM (inactive); in the assay with OVCAR-8 it was 26.4 µM (inactive). Further, in the assay on HCC 2998, the GI50 is > 100 µM (inactive).
For the molecule `COC1/C=C/C(C)C(C(C)C(OC)C(C)CCC(=O)C(C)C(CCC(=O)O)OC)OC(=O)/C=C/C=C(\C)CC(OC)CC2=CC(=O)O[C@@H](C(C)C(OC)CC(OC)/C=C/C(C)C(OC)C1)[C@H]2O` (some centres not stated), the GI50 in the assay on Malme-3M is 0.592 µM (active); with MOLT-4, 0.467 µM (active); in the assay with EKVX it was 2.22 µM (inactive); in the assay on MDA-MB-435 it was 0.748 µM (active); in the assay with COLO 205, 0.125 µM (active); in the assay with HOP-92, 0.372 µM (active). The GI50 in the assay with NCI-H23 was 1.61 µM (inactive); in the assay on KM12, 2.19 µM (inactive); in the assay on LOX IMVI, 0.226 µM (active); with ACHN, 0.74 µM (active); in the assay with T47D, 2.56 µM (inactive); in the assay on NCI-H460 it was 0.43 µM (active). In addition, the GI50 in the assay on NCI-H522 is 1.37 µM (inactive); with A498, 0.123 µM (active); with SF-539, 0.292 µM (active); with OVCAR-4, 0.971 µM (active); in the assay with 786-0, 0.578 µM (active); in the assay on OVCAR-8 it was 2.21 µM (inactive). In the assay on HCC 2998, the GI50 is 0.353 µM (active).
With `COC(=O)c1ccc2c(c1)CC1(C2)Cc2ccccc2C1=O` (configuration not stated), the GI50 is 20.8 µM (inactive) in the assay with Malme-3M; 15.4 µM (inactive) in the assay on MOLT-4; 29.5 µM (inactive) in the assay on EKVX; 24.5 µM (inactive) with MDA-MB-435; 18 µM (inactive) in the assay on COLO 205; 18.1 µM (inactive) in the assay on HOP-92. For the same molecule, the GI50 with NCI-H23 was 29.5 µM (inactive); in the assay on LOX IMVI, 22.4 µM (inactive); in the assay with ACHN, 29.7 µM (inactive); with T47D it was 37.8 µM (inactive); in the assay on NCI-H460 it was > 100 µM (inactive); in the assay with NCI-H522, 25.3 µM (inactive). Besides, the GI50 in the assay on A498 is 37.6 µM (inactive); in the assay with UO-31 it was 22.4 µM (inactive); with SF-539, 38.6 µM (inactive); in the assay on OVCAR-4 it was 32.3 µM (inactive); in the assay on 786-0, 40.2 µM (inactive); with OVCAR-8, 38.5 µM (inactive). Further, the GI50 in the assay with HCC 2998 is 54.5 µM (inactive).
As to `CC1=C(C(=O)N[C@@H](CC(C)C)C(=O)O)N2C(=O)[C@@H](NC(=O)[C@@H](N)Cc3ccccc3)[C@H]2SC1`, the GI50 in the assay on Malme-3M, in the assay with MOLT-4, in the assay with EKVX, in the assay on MDA-MB-435, in the assay on COLO 205 and with HOP-92 was > 100 µM (inactive) throughout. Also, the GI50 with KM12, in the assay with LOX IMVI, in the assay on ACHN, in the assay on T47D, in the assay on NCI-H460 and in the assay with NCI-H522 was > 100 µM (inactive) throughout. Besides, the GI50 in the assay on A498, in the assay on SF-539, in the assay with OVCAR-4, in the assay on 786-0, with OVCAR-8 and in the assay on HCC 2998 was > 100 µM (inactive) each time.
For the molecule `CCOC(=O)c1c2cccccc-2nc1Nc1cccc2c(C)ccnc12`, the GI50 was > 10 µM (inactive) with Malme-3M; 5.16 µM (inactive) with MOLT-4; > 10 µM (inactive) in the assay with EKVX; > 10 µM (inactive) with MDA-MB-435; 7.43 µM (inactive) with COLO 205; > 10 µM (inactive) with HOP-92. Besides, the GI50 is > 10 µM (inactive) with NCI-H23; > 10 µM (inactive) in the assay with KM12; > 10 µM (inactive) in the assay on LOX IMVI; 6.14 µM (inactive) in the assay on ACHN; 2.66 µM (inactive) in the assay with T47D; 7.31 µM (inactive) with NCI-H460. In addition, the GI50 was > 10 µM (inactive) in the assay on A498; 9.16 µM (inactive) in the assay with UO-31; > 10 µM (inactive) in the assay on SF-539; 4.82 µM (inactive) with OVCAR-4; > 10 µM (inactive) in the assay with 786-0; > 10 µM (inactive) with OVCAR-8. Further, the GI50 in the assay with HCC 2998 was > 10 µM (inactive).
In the case of `O=C(NCCCl)Nc1cccnc1`, the GI50 in the assay with Malme-3M is 2.62 µM (inactive); in the assay with MOLT-4, 33 µM (inactive); in the assay with EKVX it was 14.1 µM (inactive); in the assay with MDA-MB-435 it was 24.5 µM (inactive); in the assay with COLO 205 it was 24.7 µM (inactive); in the assay with HOP-92 it was 19.9 µM (inactive). Further, the GI50 with NCI-H23 is 17.5 µM (inactive); in the assay on KM12, 13.8 µM (inactive); with LOX IMVI it was 19.3 µM (inactive); with ACHN, 13.6 µM (inactive); in the assay on T47D, 35.7 µM (inactive); in the assay on NCI-H522, 25.6 µM (inactive). Further, the GI50 in the assay with A498 was 24.7 µM (inactive); with UO-31, 22.3 µM (inactive); in the assay on SF-539, 31.3 µM (inactive); in the assay on OVCAR-4 it was 43.1 µM (inactive); with 786-0, 16.9 µM (inactive); with OVCAR-8 it was 12.4 µM (inactive). The GI50 in the assay with HCC 2998 was 17.7 µM (inactive).
